Assay results from the CheMixHub ionic liquid set.

Assay: xn = mol fraction of the nth substance listed

CC[n+]1ccn(C)c1.O=S(=O)([O-])C(F)(F)F + CN(C)C=O + OCCO
viscosity [mPa·s], 100 kPa
Details	298.15 K	303.15 K	308.15 K	313.15 K	318.15 K	323.15 K
x2 = 0.0208, x3 = 0.1868	29.3	24.8	21.15	18.23	15.83	13.8
x2 = 0.0306, x3 = 0.198	27.9	23.6	20.16	17.39	15.11	13.18
x2 = 0.0398, x3 = 0.2206	25.8	21.9	18.69	16.15	14.06	12.27
x2 = 0.0679, x3 = 0.2281	23.5	20	17.13	14.83	12.93	11.29
x2 = 0.0847, x3 = 0.2475	21.3	18.2	15.61	13.54	11.83	10.34
x2 = 0.1005, x3 = 0.2658	19.4	16.5	14.24	12.39	10.85	9.48
x2 = 0.1248, x3 = 0.2717	17.7	15.2	13.09	11.41	10.01	8.76
x2 = 0.1637, x3 = 0.2744	15.6	13.4	11.59	10.14	8.92	7.81
x2 = 0.1852, x3 = 0.2798	14.3	12.3	10.67	9.35	8.25	7.23
x2 = 0.2057, x3 = 0.2849	13.1	11.3	9.84	8.64	7.64	6.7
x2 = 0.2567, x3 = 0.2666	11.6	10.1	8.83	7.78	6.9	6.06
x2 = 0.3179, x3 = 0.2469	9.96	8.69	7.63	6.76	6.02	5.29
x2 = 0.3633, x3 = 0.2306	8.7	7.63	6.74	6	5.34	4.85
x2 = 0.4128, x3 = 0.2106	7.83	6.89	6.11	5.45	4.89	4.31
x2 = 0.469, x3 = 0.1967	6.48	5.75	5.13	4.61	4.16	3.68
x2 = 0.5074, x3 = 0.1828	5.85	5.22	4.68	4.22	3.85	3.19
x2 = 0.5624, x3 = 0.1668	4.75	4.27	3.86	3.51	3.19	2.84
x2 = 0.6135, x3 = 0.152	3.92	3.55	3.24	2.96	2.71	2.43
x2 = 0.6611, x3 = 0.1382	3.32	3.02	2.76	2.53	2.32	2.15
x2 = 0.7126, x3 = 0.1243	2.61	2.41	2.23	2.07	1.92	1.74
x2 = 0.7536, x3 = 0.1124	2.33	2.14	1.98	1.83	1.7	1.58
x2 = 0.7982, x3 = 0.1005	1.83	1.7	1.59	1.49	1.4	1.29
x2 = 0.8449, x3 = 0.0889	1.53	1.42	1.33	1.24	1.17	1.09
x2 = 0.8948, x3 = 0.0712	1.22	1.14	1.07	1.01	0.95	0.89

CCCC[n+]1ccn(C)c1.N[C@@H](CC(=O)O)C(=O)[O-] + CO
101 kPa
Details	electrical conductivity [S/m]
298.15 K, x2 = 0.2999	0.101
298.15 K, x2 = 0.5015	0.161
298.15 K, x2 = 0.7957	0.64
298.15 K, x2 = 0.8988	1.13
303.15 K, x2 = 0.1999	0.108
303.15 K, x2 = 0.5949	0.241
303.15 K, x2 = 0.6969	0.377
308.15 K, x2 = 0.398	0.218
308.15 K, x2 = 0.6969	0.496
308.15 K, x2 = 0.9214	1.39
308.15 K, x2 = 0.975	1.36
318.15 K, x2 = 0.1999	0.212
318.15 K, x2 = 0.5015	0.378
318.15 K, x2 = 0.7957	0.98
318.15 K, x2 = 0.8988	1.42

CCc1n(S(=O)(=O)O)cc[n+]1S(=O)(=O)O.O=C([O-])C(F)(F)F + CO
electrical conductivity [S/m], 101 kPa
Details	283.15 K	293.15 K	298.15 K	313.15 K
x1 = 0.0052	–	–	1.51	–
x1 = 0.0255	–	–	3.08	–
x1 = 0.02551	3.57	3.28	3.08	2.7

Cc1n(S(=O)(=O)O)cc[n+]1S(=O)(=O)O.O=C([O-])C(F)(F)F + CO
Details	electrical conductivity [S/m]
298.15 K, 101 kPa, x1 = 0.0104	1.52

O=C([O-])C(F)(F)F.O=S(=O)(O)n1cc[n+](S(=O)(=O)O)c1 + CO
electrical conductivity [S/m], 101 kPa
Details	288.15 K	298.15 K	308.15 K	313.15 K	333.15 K
x1 = 0.0052	–	1.85	–	–	–
x1 = 0.02551	4.64	–	3.89	3.76	3.25

CCCCCCCCCCCCCC[P+](CCCCCC)(CCCCCC)CCCCCC.Cc1ncc([N+](=O)[O-])[n-]1 + COCCOCCOCCOCCOC
viscosity [mPa·s], 100 kPa
Details	278.15 K	283.15 K	288.15 K	293.15 K	298.15 K	303.15 K	308.15 K	313.15 K	318.15 K	323.15 K
x2 = 0.151	2535	1685	1140	791	563	411	306	232	179	141
x2 = 0.399	595	425	308	228	173	134	106	85	69	57

CCCCCCCCCCCCCC[P+](CCCCCC)(CCCCCC)CCCCCC.N#C[N-]C#N + COCCOCCOCCOCCOC
viscosity [mPa·s], 100 kPa
Details	278.15 K	283.15 K	288.15 K	293.15 K	298.15 K	303.15 K	308.15 K	313.15 K	318.15 K	323.15 K
x2 = 0	1750	1210	842	603	442	331	253	196	155	124
x2 = 0.099	1130	794	566	413	308	234	182	143	115	93
x2 = 0.203	708	508	370	275	209	162	128	103	83	69
x2 = 0.299	479	348	258	195	151	119	96	78	64	54
x2 = 0.501	160	122	95	75	61	–	–	–	–	–
x2 = 0.652	73	57	–	–	–	–	–	–	–	–

CCCCCCCCCCCCCC[P+](CCCCCC)(CCCCCC)CCCCCC.N#Cc1nc[n-]c1C#N + COCCOCCOCCOCCOC
viscosity [mPa·s], 100 kPa
Details	278.15 K	283.15 K	288.15 K	293.15 K	298.15 K	303.15 K	308.15 K	313.15 K	318.15 K	323.15 K
x2 = 0.201	1051	723	507	365	269	203	156	123	98	79
x2 = 0.401	389	283	209	158	122	97	77	63	–	–

CC[n+]1ccn(C)c1.O=S(=O)([O-])C(F)(F)F + CS(C)=O
100 kPa
Details	viscosity [mPa·s]
298.15 K, x1 = 0.1068	3.7
298.15 K, x1 = 0.3077	7.9
318.15 K, x1 = 0.4023	7
323.15 K, x1 = 0.4933	8.2

COCCOCCn1cc[n+](CCC#N)c1.O=S(=O)([N-]S(=O)(=O)C(F)(F)F)C(F)(F)F + CS(C)=O
101.3 kPa
Details	electrical conductivity [S/m]	viscosity [mPa·s]
293.15 K, x1 = 0.1981	0.00634	8.12
293.15 K, x1 = 0.2776	0.00928	–
303.15 K, x1 = 0.0989	0.00234	–
303.15 K, x1 = 0.1981	0.00768	–
303.15 K, x1 = 0.2776	0.0112	9.24
303.15 K, x1 = 0.5029	0.0405	26.2
303.15 K, x1 = 0.89	0.0942	83.1
313.15 K, x1 = 0.0989	0.00278	–
313.15 K, x1 = 0.1981	0.00939	–
313.15 K, x1 = 0.798	0.148	33.2
313.15 K, x1 = 0.89	0.125	51.5
323.15 K, x1 = 0.0989	0.00342	–
323.15 K, x1 = 0.1981	0.0122	3.212
323.15 K, x1 = 0.798	0.203	24.66
